# Like-named read-outs stand apart in the source and are kept apart here.
# Experiments:
# UGT2B15 = target: T1, UGT2B15 (Homo sapiens, UniProt P54855); assay: Inhibition of S-oxazepam glucuronidation in rUGT2B15 homogenate/microsomes (UGT-overexpressing HEK293); assay type: biochemical; details: for IC50: rUGT2B15
# T1 construct: expressed in transfected cells; cell homogenate
# T1 sequence (P54855 24-530): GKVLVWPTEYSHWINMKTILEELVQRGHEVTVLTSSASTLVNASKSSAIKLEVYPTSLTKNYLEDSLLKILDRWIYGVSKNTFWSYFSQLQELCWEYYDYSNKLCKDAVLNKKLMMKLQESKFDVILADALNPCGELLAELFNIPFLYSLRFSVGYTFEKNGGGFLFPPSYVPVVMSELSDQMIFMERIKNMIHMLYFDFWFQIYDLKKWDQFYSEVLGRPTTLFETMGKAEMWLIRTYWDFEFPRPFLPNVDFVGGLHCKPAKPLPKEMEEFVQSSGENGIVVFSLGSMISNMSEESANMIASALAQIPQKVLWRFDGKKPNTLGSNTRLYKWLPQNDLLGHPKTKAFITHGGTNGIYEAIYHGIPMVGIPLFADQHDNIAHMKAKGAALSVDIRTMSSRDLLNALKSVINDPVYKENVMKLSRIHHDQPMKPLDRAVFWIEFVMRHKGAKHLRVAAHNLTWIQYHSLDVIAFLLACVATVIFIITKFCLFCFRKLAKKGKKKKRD
# Protocol: (§1) Human embryonic kidney cells (HEK293) stably overexpressing the single UGTs 1A9, 2B7, and 2B15 have been previously established and described. Cells were grown in DMEM supplemented with 350 μg/mL of geneticin and 10% FBS and harvested in PBS. Microsomal fractions of UGT-overexpressing cell lines were prepared by differential centrifugation using previously described protocols. Briefly, cell homogenates were prepared by resuspending pelleted cells in PBS, followed by five rounds of freeze–thaw cycles prior to homogenization. Recombinant microsomes (rUGTs) were prepared by centrifuging the cell homogenate at a low speed (9000× g for 30 min) followed by ultracentrifugation (34,000× g for 60 min), with the total protein subsequently determined using a BCA assay. Recombinant microsomes (UGT1A9 and 2B7) and homogenates (UGT2B15) were used for inhibition studies.
# (§2) A Waters Corp BEH C18 Acquity UPLC column (1.7 µM, 2.1 × 100 mm) was used at a constant temperature of 40 °C for chromatographic separation. An elution gradient was used for 6.5 min with mobile phases A (5 mM ammonium formate) and B (100% methanol) under the following conditions: 90% A for 0.5 min, followed by a linear gradient for 3 min to 60% A, 1 min at 5% A, and re-equilibration for 1 min at 90% A.
# (§3) The reaction was initiated by the addition of 4 mM UDPGA as the cofactor and incubated for 2 h at 37 °C. The reaction was terminated by adding 30 µL of an ice-cold stop solution (acetonitrile/methanol; 1:1). The reaction mixtures were centrifuged at 17,000× g for 30 min at 4 °C, and the supernatant was transferred to UPLC sample glass vial for analysis using UPLC–MS/MS (described above). […] As a positive control for inhibition assays, ketoconazole (10 μM and 100 µM) was used as a potential inhibitor of the UGTs 1A9, 2B7, and 2B15. Reactions containing only the cannabinoid vehicle (3% methanol) and without any inhibitor (cannabinoids) were used as a baseline reaction for 100% enzyme activity, while a reaction without UDPGA was used as a negative control. All experiments were performed in three independent experiments.
# (§4) Determination of IC50 and Ki Values. […] The nonspecific binding constants (fu,inc) for cannabinoids in HEK293 microsomes, HLM, and HKM were previously determined and used to calculate the inhibition by unbound (‘free’) cannabinoid in each reaction. A nonlinear regression analysis and the following equation were used to calculate the IC50 values:(1) y = Bottom +Top − Bottom / 1 + 10^x − LogIC50A where ‘Bottom’ is the maximum observed inhibition (lowest percent activity) and ‘Top’ is the minimum observed inhibition (highest percent activity) for a given cannabinoid.
# UGT1A9 = target: T2, UGT1A9 (Homo sapiens, UniProt O60656); assay: Inhibition of R-oxazepam glucuronidation in rUGT1A9 microsomes (UGT-overexpressing HEK293); assay type: biochemical; details: for IC50: rUGT1A9
# T2 construct: expressed in transfected cells; microsomal fraction
# T2 sequence (O60656 26-530): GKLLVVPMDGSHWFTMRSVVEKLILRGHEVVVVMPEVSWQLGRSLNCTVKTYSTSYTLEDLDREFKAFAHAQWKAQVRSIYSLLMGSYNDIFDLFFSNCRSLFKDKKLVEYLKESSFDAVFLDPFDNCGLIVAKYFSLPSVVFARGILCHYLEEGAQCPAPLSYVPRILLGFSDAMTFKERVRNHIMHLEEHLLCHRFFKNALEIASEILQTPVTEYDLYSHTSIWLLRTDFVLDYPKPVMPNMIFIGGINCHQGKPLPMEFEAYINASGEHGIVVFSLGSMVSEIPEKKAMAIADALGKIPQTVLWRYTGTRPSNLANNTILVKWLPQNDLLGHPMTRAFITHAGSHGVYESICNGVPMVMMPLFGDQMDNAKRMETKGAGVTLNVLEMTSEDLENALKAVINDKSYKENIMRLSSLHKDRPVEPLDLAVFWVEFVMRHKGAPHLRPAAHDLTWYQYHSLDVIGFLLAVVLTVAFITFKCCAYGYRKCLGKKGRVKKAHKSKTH
# Protocol: as §1, §2, §3, §4
# UGT2B7 = target: T3, UGT2B7 (Homo sapiens, UniProt P16662); assay: Inhibition of R- and S-oxazepam glucuronidation in rUGT2B7 microsomes (UGT-overexpressing HEK293); assay type: biochemical; details: for IC50: rUGT2B7; for inhibition at 2 h, 100 µM: human, pH 7.4, rUGT2B7 microsomes
# T3 construct: expressed in transfected cells; microsomal fraction
# T3 sequence (P16662 24-529): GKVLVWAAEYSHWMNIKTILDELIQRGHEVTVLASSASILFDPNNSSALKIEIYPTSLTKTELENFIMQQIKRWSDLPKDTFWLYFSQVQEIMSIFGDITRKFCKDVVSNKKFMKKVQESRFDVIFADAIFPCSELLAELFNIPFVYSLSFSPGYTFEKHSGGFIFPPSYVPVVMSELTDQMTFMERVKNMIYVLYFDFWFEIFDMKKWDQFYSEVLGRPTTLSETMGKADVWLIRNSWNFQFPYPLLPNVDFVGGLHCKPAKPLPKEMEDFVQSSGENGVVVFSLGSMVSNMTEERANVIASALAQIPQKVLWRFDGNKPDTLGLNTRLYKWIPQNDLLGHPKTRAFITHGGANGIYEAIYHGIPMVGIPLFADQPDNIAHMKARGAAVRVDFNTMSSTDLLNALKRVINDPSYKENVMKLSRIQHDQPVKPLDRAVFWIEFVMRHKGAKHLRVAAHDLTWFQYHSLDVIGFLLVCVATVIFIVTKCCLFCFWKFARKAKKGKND
# Protocol: as §1, §2, §3, §4
# [1] = cited from earlier work
# [2] = IC50 corrected with fu,inc, read-out: IC50,u, S-Oxazepam Glucuronide
# [3] = read-out: IC50, S-Oxazepam Glucuronide
# [4] = IC50 corrected with fu,inc, read-out: IC50,u, R-Oxazepam Glucuronide
# [5] = read-out: IC50, R-Oxazepam Glucuronide
# [6] = rUGT1A9 microsomes, 100 µM cannabinoid, vs control without cannabinoid
# [7] = rUGT2B7 microsomes, 100 µM cannabinoid
# [8] = overexpressing HEK293 cell lines
Compound,IC50 (UGT2B15; [2]) [nM],IC50 (UGT2B15; [3]) [nM],IC50 (UGT1A9; [4]) [nM],IC50 (UGT1A9; [5]) [nM],Inhibition of R-oxazepam glucuronide formation (UGT1A9; [6]) [%],IC50 (UGT2B7; [4]) [nM],IC50 (UGT2B7; [2]) [nM],IC50 (UGT2B7; [5]) [nM],IC50 (UGT2B7; [3]) [nM],Inhibition of R-oxazepam glucuronidation (UGT2B7; [7]) [%],Inhibition of S-oxazepam glucuronidation (UGT2B7; [7]) [%],"unbound fraction (fu,inc) ([1]; incubation mixtures with HKM)","unbound fraction (fu,inc) ([1]; incubation mixtures with HLM)","unbound fraction (fu,inc) [1, 8]","inhibition at 2 h, 10 µM (UGT2B15; human, pH 7.4, rUGT2B15 microsomes, 10 µM cannabinoid, range over the four cannabinoids, read-out: Inhibition of S-oxazepam glucuronide formation) [%]","inhibition at 2 h, 100 µM (UGT2B15; human, pH 7.4, rUGT2B15 microsomes, 100 µM cannabinoid, range over the four cannabinoids, read-out: Inhibition of S-oxazepam glucuronide formation) [%]","inhibition at 2 h, 10 µM (UGT1A9; human, pH 7.4, rUGT1A9 microsomes, 10 µM cannabinoid, vs control without cannabinoid, read-out: Inhibition of R-oxazepam glucuronide formation) [%]","inhibition at 2 h, 100 µM (UGT1A9; human, pH 7.4, rUGT1A9 microsomes, 100 µM cannabinoid, vs control without cannabinoid, read-out: Inhibition of R-oxazepam glucuronide formation) [%]","inhibition at 2 h, 100 µM (UGT2B7; 100 µM cannabinoid, read-out: Inhibition of R-oxazepam glucuronidation) [%]","inhibition at 2 h, 100 µM (UGT2B7; 100 µM cannabinoid, read-out: Inhibition of S-oxazepam glucuronidation) [%]"
11-hydroxy-Δ^9-tetrahydrocannabinol [11-OH-THC],4500 ± 2100,58000 ± 27000,1000 ± 600,13000 ± 7700,87,770 ± 640,530 ± 260,9900 ± 8200,6800 ± 3300,80,81,0.094 ± 0.014,0.094 ± 0.014,0.078 ± 0.042,–,–,–,–,–,–
"C=C(C)[C@@H]1CCC(C)=C[C@H]1c1c(O)cc(CCCCC)cc1O [CBD, cannabidiol]",2000 ± 350,54000 ± 9000,53 ± 11,1400 ± 290,–,–,–,–,–,–,–,0.062 ± 0.009,0.051 ± 0.008,0.038 ± 0.002,40 to 66,83 to 91,98,99,95,89
"CCCCCc1cc(O)c2c(c1)OC(C)(C)[C@@H]1CCC(C)=C[C@@H]21 [THC, Δ^9-tetrahydrocannabinol]",840 ± 420,20000 ± 10000,500 ± 310,–,83,–,–,–,–,50,–,0.052 ± 0.005,0.048 ± 0.002,0.042 ± 0.003,–,–,–,–,–,–

# Source: publication PMC10892093 (Pharmaceutics, 2024)
